Results on 18 molecules are retold here after patent publication US20250320213A1, “Nitrogen-Containing Heterocyclic Compounds” (Pfizer Inc., priority 2024, published 2025).

This test has as its target T1, STAT6 (Homo sapiens, UniProt P42226).
T1 construct: stably transfected HaCaT keratinocyte cell line, which expresses NanoLuc luciferase reporter gene under the transcriptional control of the STAT6 responsive promoter; endogenous in cells; host or cells: HaCaT keratinocyte reporter cell line (stably transfected with a NanoLuc reporter)
T1 sequence (P42226 1-847): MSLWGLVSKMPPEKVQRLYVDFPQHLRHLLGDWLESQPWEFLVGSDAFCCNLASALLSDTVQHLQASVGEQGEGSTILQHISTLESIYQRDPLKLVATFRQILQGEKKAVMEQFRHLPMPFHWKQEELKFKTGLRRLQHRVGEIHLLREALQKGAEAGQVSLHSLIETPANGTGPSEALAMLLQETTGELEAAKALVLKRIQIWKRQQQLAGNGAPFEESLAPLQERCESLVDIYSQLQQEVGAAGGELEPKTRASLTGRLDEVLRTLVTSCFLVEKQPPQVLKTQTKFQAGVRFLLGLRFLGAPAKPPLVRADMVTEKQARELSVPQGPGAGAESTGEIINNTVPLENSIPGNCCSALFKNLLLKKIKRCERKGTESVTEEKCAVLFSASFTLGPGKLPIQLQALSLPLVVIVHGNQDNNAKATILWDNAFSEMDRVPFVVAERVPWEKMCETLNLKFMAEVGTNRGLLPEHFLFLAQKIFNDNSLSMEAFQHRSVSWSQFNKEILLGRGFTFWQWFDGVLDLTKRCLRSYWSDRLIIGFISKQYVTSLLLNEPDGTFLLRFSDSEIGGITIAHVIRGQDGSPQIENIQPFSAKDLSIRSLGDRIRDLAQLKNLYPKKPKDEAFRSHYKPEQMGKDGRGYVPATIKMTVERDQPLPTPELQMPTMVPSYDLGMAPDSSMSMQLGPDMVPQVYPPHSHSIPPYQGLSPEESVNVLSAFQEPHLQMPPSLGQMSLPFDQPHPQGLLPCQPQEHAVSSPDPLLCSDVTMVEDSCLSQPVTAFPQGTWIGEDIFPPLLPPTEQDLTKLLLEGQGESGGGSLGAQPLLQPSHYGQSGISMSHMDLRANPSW
Briefly: STAT6 Reporter Luciferase Assay (IL-13 stimulated HaCaT keratinocyte NanoLuc reporter cells). The format is cell-based. To be noted: IL-13 stimulated HaCaT STAT6 NanoLuc reporter cells; read-out: Reporter EC50. Summed up: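 Luminescence from a NanoLuc reporter driven by the STAT6-responsive IL-13Ra2 promoter in HaCaT keratinocytes serves as the read-out. Compounds are given 2 h before a 4 h stimulation with 0.12 nM IL-13.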
As to `CC(C)n1nc(C(=O)NCc2ccc(NC(=O)N3CCC[C@@H](N(C)C)C3)c(F)c2)c2c1[C@@H](C)CN(c1ccc(C(=O)N(C)C)cc1)C2` [Example 682, (S)-N-(4-((R)-3-(dimethylamino)piperidine-1-carboxamido)-3-fluorobenzyl)-5-(4-(dimethylcarbamoyl)phenyl)-1-isopropyl-7-methyl-4,5,6,7-tetrahydro-1H-pyrazolo[4,3-c]pyridine-3-carboxamide], the 50% effective concentration (EC50) (in general, the concentration giving half of the maximal effect) was 4 nM. To `CC(C)n1nc(C(=O)NCc2ccc(NC(=O)N3CCC[C@H](N(C)C)C3)c(F)c2)c2c1[C@@H](C)CN(c1ccc(C(=O)N(C)C)cc1)C2` [Example 683, (S)-N-(4-((S)-3-(dimethylamino)piperidine-1-carboxamido)-3-fluorobenzyl)-5-(4-(dimethylcarbamoyl)phenyl)-1-isopropyl-7-methyl-4,5,6,7-tetrahydro-1H-pyrazolo[4,3-c]pyridine-3-carboxamide] belongs 3 nM. To `CC(C)n1nc(C(=O)NCc2ccc(NC(=O)N3CC[C@H](CN(C)C)C3)c(F)c2)c2c1[C@@H](C)CN(c1ccc(C(=O)N(C)C)cc1)C2` [Example 684, (S)-N-(4-((R)-3-((dimethylamino)methyl)pyrrolidine-1-carboxamido)-3-fluorobenzyl)-5-(4-(dimethylcarbamoyl)phenyl)-1-isopropyl-7-methyl-4,5,6,7-tetrahydro-1H-pyrazolo[4,3-c]pyridine-3-carboxamide] belongs 2 nM; to `CC(C)n1nc(C(=O)NCc2ccc(NC(=O)NC3(C)CNC3)c(F)c2)c2c1[C@@H](C)CN(c1ccc(C(=O)N(C)C)cc1)C2` [Example 685, (S)-5-(4-(dimethylcarbamoyl)phenyl)-N-(3-fluoro-4-(3-(3-methylazetidin-3-yl)ureido)benzyl)-1-isopropyl-7-methyl-4,5,6,7-tetrahydro-1H-pyrazolo[4,3-c]pyridine-3-carboxamide], 2 nM; to `CC(C)n1nc(C(=O)NCc2ccc(NC(=O)N3CCN(C)[C@H](C)C3)c(F)c2)c2c1[C@@H](C)CN(c1ccc(C(=O)N(C)C)cc1)C2` [Example 686, (S)-5-(4-(dimethylcarbamoyl)phenyl)-N-(4-((R)-3,4-dimethylpiperazine-1-carboxamido)-3-fluorobenzyl)-1-isopropyl-7-methyl-4,5,6,7-tetrahydro-1H-pyrazolo[4,3-c]pyridine-3-carboxamide], 1 nM. To `CC(C)n1nc(C(=O)NCc2ccc(NC(=O)N3CCN4CCCC[C@@H]4C3)c(F)c2)c2c1[C@@H](C)CN(c1ccc(C(=O)N(C)C)cc1)C2` [Example 687, (R)-N-(4-(((S)-5-(4-(dimethylcarbamoyl)phenyl)-1-isopropyl-7-methyl-4,5,6,7-tetrahydro-1H-pyrazolo[4,3-c]pyridine-3-carboxamido)methyl)-2-fluorophenyl)octahydro-2H-pyrido[1,2-a]lpyrazine-2-carboxamide] belongs 1 nM; to `COC[C@H]1CN(C(=O)Nc2ccc(CNC(=O)c3nn(C(C)C)c4c3CN(c3ccc(C(=O)N(C)C)cn3)C[C@@H]4C)cc2F)CCN1` [Example 688, (S)-5-(5-(dimethylcarbamoyl)pyridin-2-yl)-N-(3-fluoro-4-((R)-3-(methoxymethyl)piperazine-1-carboxamido)benzyl)-1-isopropyl-7-methyl-4,5,6,7-tetrahydro-1H-pyrazolo[4,3-c]pyridine-3-carboxamide], 1 nM; to `COC[C@H]1CN(C(=O)Nc2ccc(CNC(=O)c3nn(C(C)C)c4c3CN(c3ccc(C(=O)N(C)C)cc3)C[C@@H]4C)cc2F)CCN1` [Example 689, (S)-5-(4-(dimethylcarbamoyl)phenyl)-N-(3-fluoro-4-((R)-3-(methoxymethyl)piperazine-1-carboxamido)benzyl)-1-isopropyl-7-methyl-4,5,6,7-tetrahydro-1H-pyrazolo[4,3-c]pyridine-3-carboxamide], 1 nM. `CC(C)n1nc(C(=O)NCc2ccc(NC(=O)N3CCN4CCC[C@@H]4C3)c(F)c2)c2c1[C@@H](C)CN(c1ccc(C(=O)N(C)C)cn1)C2` [Example 690, (S)-5-(5-(dimethylcarbamoyl)pyridin-2-yl)-N-(3-fluoro-4-((R)-octahydropyrrolo[1,2-a]lpyrazine-2-carboxamido)benzyl)-1-isopropyl-7-methyl-4,5,6,7-tetrahydro-1H-pyrazolo[4,3-c]pyridine-3-carboxamide]: the EC50 was determined as 1 nM.

For `CC(C)n1nc(C(=O)NCc2ccc(NC(=O)N3CCN4CCC[C@@H]4C3)cc2)c2c1[C@@H](C)CN(c1ccc(C(=O)N(C)C)cn1)C2` [Example 691, (S)-5-(5-(dimethylcarbamoyl)pyridin-2-yl)-1-isopropyl-7-methyl-N-(4-((R)-octahydropyrrolo[1,2-a]pyrazine-2-carboxamido)benzyl)-4,5,6,7-tetrahydro-1H-pyrazolo[4,3-c]pyridine-3-carboxamide], the EC50 was found to be 1 nM. On to `CC(C)n1nc(C(=O)NCc2ccc(NC(=O)N(C)CCC(=O)O)c(F)c2)c2c1[C@@H](C)CN(c1ccc(C(=O)N(C)C)cc1)C2` [Example 733, (S)-3-(3-(4-((5-(4-(dimethylcarbamoyl)phenyl)-1-isopropyl-7-methyl-4,5,6,7-tetrahydro-1H-pyrazolo[4,3-c]pyridine-3-carboxamido)methyl)-2-fluorophenyl)-1-methylureido)propanoic acid], for which the concentration for a half-maximal effect (EC50) came to 342 nM. Turning to `CC(C)n1nc(C(=O)NCc2ccc(NC(=O)N3CCC(C(=O)O)CC3)c(F)c2)c2c1[C@@H](C)CN(c1ccc(C(=O)N(C)C)cc1)C2` [Example 734, (S)-1-((4-((5-(4-(dimethylcarbamoyl)phenyl)-1-isopropyl-7-methyl-4,5,6,7-tetrahydro-1H-pyrazolo[4,3-c]pyridine-3-carboxamido)methyl)-2-fluorophenyl)carbamoyl)piperidine-4-carboxylic acid], the half-maximal effective concentration (EC50) came to 38 nM. As for `CC(C)n1nc(C(=O)NCc2ccc(NC(=O)N3CCN(C)[C@@H](C)C3)cc2)c2c1[C@@H](C)CN(c1ccc(C(=O)N(C)C)cc1)C2` [Example 735, (S)-5-(4-(dimethylcarbamoyl)phenyl)-N-(4-((S)-3,4-dimethylpiperazine-1-carboxamido)benzyl)-1-isopropyl-7-methyl-4,5,6,7-tetrahydro-1H-pyrazolo[4,3-c]pyridine-3-carboxamide], the figure is 1 nM; as for `CC(C)n1nc(C(=O)NCc2ccc(NC(=O)N3CC[C@@H](CN(C)C)C3)cc2)c2c1[C@@H](C)CN(c1ccc(C(=O)N(C)C)cc1)C2` [Example 736, (S)-N-(4-((S)-3-((dimethylamino)methyl)pyrrolidine-1-carboxamido)benzyl)-5-(4-(dimethylcarbamoyl)phenyl)-1-isopropyl-7-methyl-4,5,6,7-tetrahydro-1H-pyrazolo[4,3-c]pyridine-3-carboxamide], 1 nM. `CC(C)n1nc(C(=O)NCc2ccc(NC(=O)N3CCN4CCCC[C@H]4C3)cc2)c2c1[C@@H](C)CN(c1ccc(C(=O)N(C)C)cc1)C2` [Example 737, (S)-N-(4-(((S)-5-(4-(dimethylcarbamoyl)phenyl)-1-isopropyl-7-methyl-4,5,6,7-tetrahydro-1H-pyrazolo[4,3-c]pyridine-3-carboxamido)methyl)phenyl)octahydro-2H-pyrido[1,2-a]pyrazine-2-carboxamide]: the EC50 turned out to be 1 nM.

Turning to `CC(C)n1nc(C(=O)NCc2ccc(NC(=O)N3CCC4(CC3)CN(C)CCO4)cc2)c2c1[C@@H](C)CN(c1ccc(C(=O)N(C)C)cc1)C2` [Example 738, (S)-N-(4-((5-(4-(dimethylcarbamoyl)phenyl)-1-isopropyl-7-methyl-4,5,6,7-tetrahydro-1H-pyrazolo[4,3-c]pyridine-3-carboxamido)methyl)phenyl)-4-methyl-1-oxa-4,9-diazaspiro[5.5]undecane-9-carboxamide], the 50% effective concentration (EC50) came out at 1 nM. As to `CC(C)n1nc(C(=O)NCc2ccc(NC(=O)NC3(C)CNC3)cc2)c2c1[C@@H](C)CN(c1ccc(C(=O)N(C)C)cc1)C2` [Example 739, (S)-5-(4-(dimethylcarbamoyl)phenyl)-1-isopropyl-7-methyl-N-(4-(3-(3-methylazetidin-3-yl)ureido)benzyl)-4,5,6,7-tetrahydro-1H-pyrazolo[4,3-c]pyridine-3-carboxamide], the concentration for a half-maximal effect (EC50) was 2 nM.

In the case of `CC(C)n1nc(C(=O)NCc2ccc(NC(=O)N3CCC4(CC3)CCN4C)cc2)c2c1[C@@H](C)CN(c1ccc(C(=O)N(C)C)cc1)C2` [Example 740, (S)-5-(4-(dimethylcarbamoyl)phenyl)-1-isopropyl-7-methyl-N-(4-(1-methyl-1,7-diazaspiro[3.5]nonane-7-carboxamido)benzyl)-4,5,6,7-tetrahydro-1H-pyrazolo[4,3-c]pyridine-3-carboxamide], the concentration for a half-maximal effect (EC50) came to 2 nM.
